# In ChEMBL document CHEMBL1130686, “A new series of C3-aza carbocyclic influenza neuraminidase inhibitors: synthesis and inhibitory activity” (Bioorg Med Chem Lett, 1998):
# Biological target: Neuraminidase (Influenza A virus (A/Puerto Rico/8/1934(H1N1)), UniProt P03468)
# Experiment: Inhibition of neuraminidase of influenza A
row,Compound,IC50 [nM]
1,CCC(=O)N[C@@H]1C=C(C(=O)O)C[C@H](N)[C@H]1NC(C)=O,2700
2,CCCCN(C)[C@@H]1C=C(C(=O)O)C[C@H](N)[C@H]1NC(C)=O,180
3,CCCN(CC)[C@@H]1C=C(C(=O)O)C[C@H](N)[C@H]1NC(C)=O,90
4,CC(=O)N[C@@H]1[C@@H](N)CC(C(=O)O)=C[C@H]1NC(=O)C(C)C,6400
5,CCC(CC)C(=O)N[C@@H]1C=C(C(=O)O)C[C@H](N)[C@H]1NC(C)=O,4000
6,CCC(CC)N[C@@H]1C=C(C(=O)O)C[C@H](N)[C@H]1NC(C)=O,11
7,CCCN[C@@H]1C=C(C(=O)O)C[C@H](N)[C@H]1NC(C)=O,200
8,CC(=O)N[C@H]1[C@H](N(C)C2CCCCC2)C=C(C(=O)O)C[C@@H]1N,200
9,CCCN(CCC)[C@@H]1C=C(C(=O)O)C[C@H](N)[C@H]1NC(C)=O,12
10,CCC(CC)N(C)[C@@H]1C=C(C(=O)O)C[C@H](N)[C@H]1NC(C)=O,6
11,CCCCN(CC)[C@@H]1C=C(C(=O)O)C[C@H](N)[C@H]1NC(C)=O,85
12,CC(=O)N[C@H]1[C@H](N(C)CCc2ccccc2)C=C(C(=O)O)C[C@@H]1N,100
